Data published in US10774080B2, “Pyrimidine compound as JAK kinase inhibitor” (THERAVANCE BIOPHARMA R&D IP, LLC, priority 2017, dated 2020).

Columns and labels:
[1] = Dynamic moisture sorption (DMS); assay type: physicochemical; details: for total moisture uptake between 5 and 90% RH: 25° C.
Protocol: Dynamic moisture sorption (DMS) measurement was performed using a VTI atmospheric microbalance, SGA-100 system (VTI Corp., Hialeah, Fla. 33016). A weighed sample was used and the humidity was lowest possible value (close to 0% RH) at the start of the analysis. The DMS analysis consisted of an initial drying step (0% RH) for 120 minutes, followed by two cycles of sorption and desorption with a scan rate of 5% RH/step over the humidity range of 5% RH to 90% RH. The DMS run was performed isothermally at 25° C. The total moisture uptake between 5 and 90% RH was 1.96%.
The DMS analysis consisted of an initial drying step (0% RH) for 120 minutes, followed by two cycles of sorption and desorption with a scan rate of 5% RH/step over the humidity range of 5% RH to 90% RH. The DMS run was performed isothermally at 25° C. The total moisture uptake between 5 and 90% RH was about 0.02%.

in vitro = in vitro ADME; details: human, microsomes, pH 7.4, HLM Clint
Protocol: Assay 17: Human Liver Microsome Assay The objective of this assay was to assess the metabolic stability of test compounds in an in vitro human liver sub-fraction. Human liver microsomes obtained from Bioreclamation-IVT (Baltimore, Md.) were thawed on ice and diluted into 0.1M potassium phosphate buffer pH 7.4 to yield final incubation protein concentrations of 0.1 mg/mL. […] Incubations were conducted at 37° C. temperature and test aliquots were taken at time points 0, 5, 8, 15, 30 and 45 minutes. […] The resulting samples were injected onto an LC-MS/MS system for analysis. For each incubation, the peak area of the analytes in each t0 aliquot was set to 100% and the peak areas from subsequent time point aliquots were converted to percentage of parent compound remaining relative to t0. The percentage of parent compound remaining was converted to natural log scale and plotted versus time in minutes. A linear regression analysis was performed for the initial decline of the parent disappearance profile and a formula for the best-fit line determined. The slope of the resultant line was normalized to protein concentration in mg/mL protein or number of cells/mL and CLint was calculated as follows for liver microsomes: CLint (μL·min^−1·mg^−1)=(Slope×1000)/[protein,mg/mL]

Compound	hygroscopicity (in words) [1]	total moisture uptake between 5 and 90% RH [1]	microsomal CLint at 0.1 μM (in vitro) [µL/min/mg]
CCS(=O)(=O)N1[C@@H]2CCC[C@H]1C[C@H](N(C)c1nc(CO)c(F)c(Nc3cc(C)[nH]n3)n1)C2 [Form II]	non-hygroscopic	about 0.02%	
CCS(=O)(=O)N1[C@@H]2CCC[C@H]1C[C@H](N(C)c1nc(Nc3cc(C)[nH]n3)cc(C(N)=O)n1)C2 [Compound C-1, 2-(((1R,3s,5S)-9-(ethylsulfonyl)-9-azabicyclo[3.3.1]nonan-3-yl)(methyl)amino)-6-((5-methyl-1H-pyrazol-3-yl)amino)pyrimidine-4-carboxamide, reference compound]			6
Cc1cc(Nc2cc(CO)nc(N(C)[C@@H]3C[C@H]4CC[C@@H](C3)N4CCC#N)n2)n[nH]1 [Compound C-2, 3-((1R,3s,5S)-3-((4-(hydroxymethyl)-6-((5-methyl-1H-pyrazol-3-yl)amino)pyrimidin-2-yl)(methyl)amino)-8-azabicyclo[3.2.1]octan-8-yl)propanenitrile, reference compound]			12
CCS(=O)(=O)N1[C@@H]2CCC[C@H]1C[C@H](N(C)c1nc(CO)c(F)c(Nc3cc(C)[nH]n3)n1)C2 [Form I]		1.96%	
